Test results taken from US5466861A, “Bridged bicyclic aromatic compounds and their use in modulating gene expression of retinoid receptors” (SRI International, priority 1992, dated 1995).

Key:
Type in all cases: cell-based
[1] = system: CRBPII-RARE, activated only by RXR homodimers; assay: Transient transfection CAT reporter assay, CRBPII-RARE; conditions: CV-1 cells; retinoids 7 and 20 at 5×10^-7 M
Procedure: (§1) To carry out the analysis, four different reporter constructs were prepared carrying the aforementioned gene, followed by cotransfection with RARα, RARβ, or RXRα, or with RXRα and RARα together. […] CV- 1 cells or HEP G2 cells were grown in DME medium supplemented with 10% fetal calf serum. Cells were plated at 1.0×10^5 per well in a 24-well plate 16-24 hours before transfection. In general, 100 ng of reporter plasmid, 150 ng of β-galactosidase expression vector (pCH110, Pharmacia), and variable amounts of receptor expression vector were mixed with carrier DNA (pBluescript) to 1,000 ng of total DNA per well. […] The retinoids 7 and 20 were analyzed at a concentration of 5×10^-7 M.

[2] = system: CRBPI gene RARE, bound and activated by RAR/RXR heterodimers; assay: Transient transfection CAT reporter assay, CRBPI-RARE; conditions: CV-1 cells; retinoids 7 and 20 at 5×10^-7 M
Procedure: as §1

[3] = system: RARβ2 gene promoter RARE (βRARE); assay: Transient transfection CAT reporter assay, βRARE; conditions: CV-1 cells; 5×10^-7 M
Procedure: (§2) To carry out the analysis, four different reporter constructs were prepared carrying the aforementioned gene, followed by cotransfection with RARα, RARβ, or RXRα, or with RXRα and RARα together. […] CV- 1 cells or HEP G2 cells were grown in DME medium supplemented with 10% fetal calf serum. Cells were plated at 1.0×10^5 per well in a 24-well plate 16-24 hours before transfection. In general, 100 ng of reporter plasmid, 150 ng of β-galactosidase expression vector (pCH110, Pharmacia), and variable amounts of receptor expression vector were mixed with carrier DNA (pBluescript) to 1,000 ng of total DNA per well. Chloramphenicol acetyl transferase (CAT) activity was normalized for transfection efficiency by the corresponding β-galactosidase activity as described by M. Pfahl et al., /Methods in Enzymology 153:256 (1990).

RXR (RXRα) = molecular target: T1, RXR (RXRα) (Homo sapiens, UniProt P19793); assay: TREpal-tk-reporter gene transient transfection assay with RXR expression vector; conditions: for activity on TREpal-tk-reporter with RXR at 10^-7 M / activity on TREpal-tk-reporter with RXR at 10^-8 M / activity with RXR on TREpal-tk-reporter, preliminary evaluation: CV-1 cells; for activity with RXR on TREpal-tk-reporter, preliminary evaluation: RXR expression vector cotransfected; for activation of RXRα (overall conclusion): from TREpal and CRBPII reporter results
T1 construct: homodimer readout
T1 sequence (P19793 1-462): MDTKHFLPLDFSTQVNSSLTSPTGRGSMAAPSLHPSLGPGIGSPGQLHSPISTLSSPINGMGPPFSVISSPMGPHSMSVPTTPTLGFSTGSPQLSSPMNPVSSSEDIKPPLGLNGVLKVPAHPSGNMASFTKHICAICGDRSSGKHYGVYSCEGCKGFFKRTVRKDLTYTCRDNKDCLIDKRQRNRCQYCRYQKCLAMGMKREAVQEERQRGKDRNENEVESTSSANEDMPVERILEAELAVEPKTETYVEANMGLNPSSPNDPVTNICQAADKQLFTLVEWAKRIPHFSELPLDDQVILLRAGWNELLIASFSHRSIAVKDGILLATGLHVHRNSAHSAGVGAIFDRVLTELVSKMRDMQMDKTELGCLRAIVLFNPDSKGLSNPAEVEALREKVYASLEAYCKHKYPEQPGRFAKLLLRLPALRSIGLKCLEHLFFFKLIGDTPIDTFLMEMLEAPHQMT
From the text: The TREpal-tk-reporter gene was use in the transient transfection assay of the preceding example to evaluate compounds 7 and 20 for induction of RXR activity specifically. The TREpal represents a response element that is activated by both RAR/RXR heterodimers and RXR homodimers (X-K. Zhang et al., Nature 358:587 (1992)).

RXR = assay: Transient transfection reporter assay in other cell lines incl. Hep G2; conditions: various other cell lines, including Hep G2 cells (particular high response)
Procedure: as §2

Structure (SMILES) | activation of CRBPII-RARE reporter (CAT activity) [1] | activation of CRBPI-RARE reporter (CAT activity) [2] | activation of βRARE reporter (CAT activity) [3] | activity on TREpal-tk-reporter with RXR at 10^-7 M (RXR (RXRα)) | activity on TREpal-tk-reporter with RXR at 10^-8 M (RXR (RXRα)) | activity with RXR on TREpal-tk-reporter, preliminary evaluation (RXR (RXRα)) | activation of RXRα (overall conclusion) (RXR (RXRα)) | RXR-specific activation in other cell lines (RXR)
CC1(C)CCC(C)(C)c2cc(C3(c4ccc(C(=O)O)cc4)SCCS3)ccc21 [Compound 7, [2-(5,6,7,8-Tetrahydro-5,5,8,8-tetramethyl-2-naphthalenyl)-2-(4-carboxyphenyl)]-1,3-dithiolane] | strong activators | no response | slightly activated | activities similar to 9-cis-retinoic acid | neither of the active compounds revealed activity | indicated activity with RXR | effective activators | 
CC(C)=C(c1ccc(C(=O)O)cc1)c1ccc2c(c1)C(C)(C)CCC2(C)C [Compound 20, 4-[1-(5,6,7,8-Tetrahydro-5,5,8,8-tetramethyl-2-naphthalenyl)-2-methyl-1-propenyl]benzoic acid] | strong activators | no response | slightly activated | activities similar to 9-cis-retinoic acid | neither of the active compounds revealed activity | indicated activity with RXR | effective activators | significant and RXR-specific activation
